Laboratory results as given in PubChem BioAssay (NCI).
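Interpolation was linear, between the two tested concentrations surrounding the appropriate level; five concentrations were tested over 48 hours in 96-well plates. TGI denotes the concentration required for complete inhibition of growth.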

Experiments:
Test in all cases: DTP human tumour cell line panel, 48 h
[1] = test system: UACC-257 melanoma
[2] = test system: HCT-116 colon
[3] = test system: CAKI-1 renal
[4] = test system: 786-0 renal
[5] = test system: MALME-3M melanoma
[6] = test system: COLO 205 colon
[7] = test system: DMS 114 small cell lung
[8] = test system: SK-MEL-5 melanoma
[9] = test system: OVCAR-4 ovarian
[10] = test system: OVCAR-8 ovarian
[11] = test system: CCRF-CEM leukemia
[12] = test system: LXFL 529 NSCLC
[13] = test system: HOP-18 NSCLC
[14] = test system: HL-60(TB) leukemia
[15] = test system: NCI-H226 lung
[16] = test system: SF-295 CNS
[17] = test system: SNB-75 CNS
[18] = test system: HT29 colon
[19] = test system: SR leukemia
[20] = test system: SF-268 CNS
[21] = test system: DLD-1 colon
[22] = test system: SNB-78 CNS
[23] = test system: M14 melanoma
[24] = test system: U251 CNS
[25] = test system: RXF-631 renal
[26] = test system: SK-MEL-28 melanoma
[27] = test system: UACC-62 melanoma
[28] = test system: SK-OV-3 ovarian
[29] = test system: SN12C renal
[30] = test system: NCI-H522 lung
[31] = test system: LOX IMVI melanoma
[32] = test system: EKVX NSCLC
[33] = test system: A498 renal
[34] = test system: K-562 leukemia
[35] = test system: HOP-92 NSCLC
[36] = test system: UO-31 renal
[37] = test system: KM12 colon
[38] = test system: RPMI-8226 leukemia
[39] = test system: IGROV1 ovarian
[40] = test system: HCT-15 colon
[41] = test system: NCI-H460 lung
[42] = test system: XF 498 CNS
[43] = test system: MOLT-4 leukemia
[44] = test system: ACHN renal
[45] = test system: M19-MEL melanoma
[46] = test system: SK-MEL-2 melanoma
[47] = test system: HCC-2998 colon
[48] = test system: SF-539 CNS
[49] = test system: SW-620 colon
[50] = test system: NCI-H23 lung
[51] = test system: A549 NSCLC
[52] = test system: OVCAR-5 ovarian
[53] = test system: TK-10 renal

Measured: TGI

N#C/C(=C/c1ccco1)C(=O)c1ccccc1
> 100 µM: all assays above
